Data as given in patent US20220281930A1, “COMPOSITIONS AND METHODS FOR THE TREATMENT OF PATHOLOGICAL PAIN AND ITCH” (DUKE UNIVERSITY, priority 2019, published 2022).

Experiments:
[1] = system: KCC2 mRNA; assay: Secondary screen: KCC2 RT-qPCR in primary mouse neurons; format: cell-based; conditions: Natural Compounds; rank score
Protocol: The primary screen encompassed three levels of LUC measurements. The first level of screening yielded a total of 137 compounds with cut-off RLU>125% LUC activity. These 137 compounds were subject to second round of screening, which was carried out in duplicate independent assays to yield the top 103 compounds sorted for highest RLU. The 103 compounds were then subjected to a third round of screening carried out in duplicate independent assays to yield the top 40 compounds which were again ranked. The best 22 of these 40 compounds (ranked for highest RLU activity) were subjected to secondary screening: Cultured neurons were treated with the 22 compounds; RT-qPCR and Clomeleon imaging methodologies (Yeo et al., 2009, J Neurosci 29:14652-14662) were used to determine effects of compounds on KCC2 mRNA expression and [Cl—]i, respectively. Each compound was ranked based on composite scores from primary and secondary screening.
(§1) Total RNA was isolated from cultured cell samples using Directzol RNA miniprep kit (ZymoResearch). The protocol includes DNAse digestion to exclude genomic DNA from preparations. Total RNA (1 μg) was reverse transcribed using oligo primers (dT) and SuperScriptIII first-strand synthesis kit (Invitrogen). Gene expression was assessed by quantitative real-time PCR using 2×SYBR Green Master Mix (Qiagen) and a three-step cycling protocol (anneal at 60° C./elongate at 72° C., denature at 95° C.). Specificity of primers was verified by dissociation/melting curve for the amplicons when using SYBR Green as a detector. All reactions were performed in triplicates. The amount of target messenger RNA (mRNA) in the experimental group relative to that in the control was determined from the resulting fluorescence and threshold values (Ct) using the ΔΔCt method. βIII-tubulin was used as housekeeping gene.
oligodT-initiated reverse transcription of 1 μg total RNA, DNA-se treated, was subjected to RT-qPCR using primers specific for KCC2 for rat and KCC2 for human sequences, normalized for neuronal βIII-tubulin, as previously described (Yeo et al., 2009, J Neurosci 29:14652-14662). For cultured neurons, total RNA was extracted from pelleted cells, and for spinal cord tissue it was extracted from microdissected lumbar spinal cord dorsal horn.
To identify KCC2 gene expression enhancing compounds, cultured primary cortical neurons were cultured from KCC2-luciferase(LUC)-knockin (KCC2-LUCki) mice (Liedtke et al., 2013, Small 9:1066-1075; Yeo et al., 2013, Proc Natl Acad Sci USA 110:4315-4320) and used LUC metrics as readout for activity of the proximal KCC2 promoter (2.5 kB (Yeo et al., 2009, J Neurosci 29:14652-14662)), which drives LUC in this mouse transgenic line. A Z′ factor of 0.94 was obtained. This strategy will not select for long-range enhancers of KCC2 gene expression that act outside the 2.5 kB core KCC2 promoter. 1057 compounds, contained in two NCI libraries (FIG. 1), related to inhibition of growth of malignantly transformed cells were screened. Iterative screening followed by measurements of KCC2 mRNA (RT-qPCR) and intracellular chloride ([Cl—]i), using clomeleon chloride indicator protein (Kuner and Augustine, 2000, Neuron 27:447-459; Yeo et al., 2009, J Neurosci 29:14652-14662), led to decreasing numbers of confirmed and re-confirmed hits, and 4 “winner” compounds were selected (FIG. 1 and Table 3).

[2] = system: KCC2 mRNA; assay: KCC2 mRNA RT-qPCR in rat primary cortical neurons; format: cell-based; conditions: primary rat cortical neurons; 0.1, 0.2, 0.5 μM KP
Protocol: as §1, with “gene. oligodT-initiated reverse transcription of 1 μg total RNA, DNA-se treated, was subjected to RT-qPCR using primers specific for KCC2 for rat and KCC2 for human sequences, normalized for neuronal βIII-tubulin, as previously described (Yeo et al., 2009, J Neurosci 29:14652-14662). For cultured neurons, total RNA was extracted from pelleted cells, and for spinal cord tissue it was extracted from microdissected lumbar spinal cord dorsal horn.” for “gene.”

[3] = system: KCC2 mRNA; assay: KCC2 mRNA RT-qPCR in primary human cortical neurons; format: cell-based; conditions: KP 50, 100, 400 nM, 48 h
Protocol: The neuron-enriched cultures were established from fetal cortical specimens at 15-20 weeks of gestation. The protocols for tissue processing complied with all federal and institutional guidelines. The cultures were plated on PEI (polyethyleneimine solution) substrate and maintained in Neurobasal media supplemented with B27 as previously described (Pelsman et al., 2003, International journal of developmental neuroscience 21:117-124; Yeo et al., 2013, Proc Natl Acad Sci USA 110:4315-4320).
For RT-qPCR, the cell pellets were collected after treatments with vehicle (0.1% DMSO) or KP (50, 100, and 400 nM) for 48 h starting at day 6 in vitro.
as §1, with “Specificity of primers was verified by dissociation/melting curve for the amplicons when using SYBR Green as a detector. All reactions were performed in triplicates.” left out, “gene. […]” for “gene.”

[4] = system: inflammatory pain, evoked by peripheral tissue injection of CFA; assay: CFA inflammatory pain model; format: in vivo, mouse
Protocol: For pain-related behavior, mechanical allodynia was assessed with von Frey filaments (Ugo Basile, Italy). The mice were placed on a 5×5-mm wire-mesh grid floor in individual compartments to avoid visual stimulation and allowed to adapt for 0.5 h prior to the von Frey test. The von Frey filament was then applied to the middle of the plantar surface of the hind paw with 5 g force. The withdrawal responses following the hind paw stimulation were measured at least three times, and the mechanical allodynia, which was defined as an increase in the number of withdrawal responses to the stimulation, was compared. In addition, paws were stimulated with heat from underneath applied by an infrared beam (Hargreaves' test apparatus, IR level 40; Ugo Basile), and withdrawal latencies were recorded. […] Thus, in vivo, KP functions as an analgesic when administered systemically in injury-related pain models.

O=C1Cc2c([nH]c3ccc(Br)cc23)-c2ccccc2N1 [kenpaullone, 9-bromo-7,12-dihydro-indolo [3,2-d] [1]benzazepin-6(5H)-one]
RT-QPCR Score (triplicates) [1]: 2 | KCC2 mRNA expression [2]: dose-dependent increase | KCC2 mRNA [3]: increases in a dose-dependent manner | sensitized withdrawal thresholds to mechanical cues ([4]; KP 10 and 30 mg/kg, no significant difference between doses): significantly less sensitive | thermal pain threshold ([4]; both low and high dose KP): significantly less sensitive only at day 7
